Here are results for 29 compounds from patent US20120101100A1 (priority 2008, published 2012).

As a reminder, the inhibition is the drop in the measured response relative to a control, in per cent.

This experiment concerns the target S. aureus GyrB ATPase (Staphylococcus aureus, UniProt P0A0K8). Kind of experiment: S. aureus (SAU) GyrB ATPase inhibition, malachite green phosphate detection (E. coli GyrA + S. aureus GyrB). It is filed as biochemical. To be noted: compound concentration of 1.0 μM unless otherwise noted; average value where assay was carried out more than once; read-out: S. aureus (SAU) GyrB ATPase % Inhibition. In short, it runs like this:
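Phosphate from ATP hydrolysis (500 μM ATP) read as malachite green/molybdate absorbance at 650 nm after acid quench. Reaction: 1.25 nM S. aureus GyrB plus 1.25 nM E. coli GyrA, sheared DNA, Hepes pH 7.5 with Mg2+. IC50 fitted over 10 concentrations, normalised to DMSO (2%) and novobiocin (2 μM) controls.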

Chain of S. aureus GyrB ATPase (P0A0K8 whole entry): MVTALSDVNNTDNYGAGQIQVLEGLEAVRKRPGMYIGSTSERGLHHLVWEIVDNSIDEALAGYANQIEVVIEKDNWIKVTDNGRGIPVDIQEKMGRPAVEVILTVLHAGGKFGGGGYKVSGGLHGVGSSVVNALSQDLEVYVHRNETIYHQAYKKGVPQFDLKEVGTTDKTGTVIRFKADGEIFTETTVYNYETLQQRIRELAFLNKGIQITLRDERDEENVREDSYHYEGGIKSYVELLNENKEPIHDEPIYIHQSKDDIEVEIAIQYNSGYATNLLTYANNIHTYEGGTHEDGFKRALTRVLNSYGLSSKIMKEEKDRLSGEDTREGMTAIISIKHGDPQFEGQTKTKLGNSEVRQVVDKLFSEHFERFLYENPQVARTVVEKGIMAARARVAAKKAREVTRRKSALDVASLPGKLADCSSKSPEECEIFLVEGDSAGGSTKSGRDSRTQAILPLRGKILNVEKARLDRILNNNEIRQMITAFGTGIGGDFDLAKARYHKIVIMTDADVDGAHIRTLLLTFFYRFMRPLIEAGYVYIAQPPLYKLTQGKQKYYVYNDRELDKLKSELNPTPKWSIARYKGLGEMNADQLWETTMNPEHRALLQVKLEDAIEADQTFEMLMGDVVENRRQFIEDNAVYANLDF
Chain of S. aureus GyrB ATPase (P0AES4 whole entry, further chain): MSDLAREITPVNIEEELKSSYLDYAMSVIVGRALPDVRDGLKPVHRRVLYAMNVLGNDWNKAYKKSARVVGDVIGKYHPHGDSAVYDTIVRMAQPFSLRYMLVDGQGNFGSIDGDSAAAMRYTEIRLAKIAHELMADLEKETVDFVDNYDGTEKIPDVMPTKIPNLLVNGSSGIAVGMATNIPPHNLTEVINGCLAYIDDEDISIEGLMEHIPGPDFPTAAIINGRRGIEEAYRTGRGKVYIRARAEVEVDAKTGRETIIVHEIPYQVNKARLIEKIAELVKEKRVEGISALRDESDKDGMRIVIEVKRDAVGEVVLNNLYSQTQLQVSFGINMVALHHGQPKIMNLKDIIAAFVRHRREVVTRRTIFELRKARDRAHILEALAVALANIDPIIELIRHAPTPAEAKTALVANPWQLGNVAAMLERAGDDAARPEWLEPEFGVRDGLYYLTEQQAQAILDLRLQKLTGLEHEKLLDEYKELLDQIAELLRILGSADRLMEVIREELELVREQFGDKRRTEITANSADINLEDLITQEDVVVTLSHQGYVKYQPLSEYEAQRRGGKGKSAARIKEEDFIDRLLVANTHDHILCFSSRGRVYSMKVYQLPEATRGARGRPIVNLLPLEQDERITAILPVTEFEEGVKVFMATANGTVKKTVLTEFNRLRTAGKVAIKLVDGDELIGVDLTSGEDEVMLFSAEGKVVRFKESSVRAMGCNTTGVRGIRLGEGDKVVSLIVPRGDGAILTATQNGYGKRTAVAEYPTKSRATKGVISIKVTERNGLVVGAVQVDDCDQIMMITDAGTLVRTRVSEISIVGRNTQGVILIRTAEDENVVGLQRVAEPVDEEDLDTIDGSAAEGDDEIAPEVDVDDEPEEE

Turning to `CCNC(=O)Nc1cc(-c2nc(-c3cccc(OC)n3)cs2)c(-c2nc(-c3ncnn3C)c(-c3nnc(C)o3)s2)cn1` [Example 252, 1-ethyl-3-(4-(4-(6-methoxypyridin-2-yl)thiazol-2-yl)-5-(5-(5-methyl-1,3,4-oxadiazol-2-yl)-4-(1-methyl-1H-1,2,4-triazol-5-yl)thiazol-2-yl)pyridin-2-yl)urea], the inhibition at 1 µM was 99%.

With `CCNC(=O)Nc1cc(-c2nc(C(F)(F)F)cs2)c(-c2cnc(OCCOC)c(-c3n[nH]c(=O)o3)c2)cn1` [Example 254], the inhibition at 1 µM turned out to be 97%. The result for `CCNC(=O)Nc1cc(-c2nc(C(F)(F)F)cs2)c(-c2cc(-c3nnc(C)o3)c[n+]([O-])c2)cn1` [Example 255, 6′-(3-ethylureido)-5-(5-methyl-1,3,4-oxadiazol-2-yl)-4′-(4-(trifluoromethyl)thiazol-2-yl)-3,3′-bipyridine 1-oxide] reads 98%. The result for `CCNC(=O)Nc1cc(-c2nc(C(F)(F)F)cs2)c(-c2cncc(-c3nnc(C(F)F)[nH]3)c2)cn1` [Example 256, 1-(5′-(5-(difluoromethyl)-4H-1,2,4-triazol-3-yl)-4-(4-(trifluoromethyl)thiazol-2-yl)-3,3′-bipyridin-6-yl)-3-ethylurea] reads 103%; that for `CCNC(=O)Nc1cc(-c2nc(C(F)(F)F)cs2)c(-c2cncc(-c3nnc(C(F)(F)F)[nH]3)c2)cn1` [Example 257, 1-ethyl-3-(5′-(5-(trifluoromethyl)-4H-1,2,4-triazol-3-yl)-4-(4-(trifluoromethyl)thiazol-2-yl)-3,3′-bipyridin-6-yl)urea], 102%. As to `CCNC(=O)Nc1cc(-c2nc(C(F)(F)F)cs2)c(-c2cnc(N)c(-c3nnc(C)o3)c2)cn1` [Example 258, 1-(6′-amino-5′-(5-methyl-1,3,4-oxadiazol-2-yl)-4-(4-(trifluoromethyl)thiazol-2-yl)-3,3′-bipyridin-6-yl)-3-ethylurea], the inhibition at 1 µM amounted to 96%. Turning to `CCNC(=O)Nc1cc(-c2nc(C(F)(F)F)cs2)c(-c2cc[n+]([O-])c(-c3nnc(C)o3)c2)cn1` [Example 259, 6-(3-ethylureido)-2′-(5-methyl-1,3,4-oxadiazol-2-yl)-4-(4-(trifluoromethyl)thiazol-2-yl)-3,4′-bipyridine 1′-oxide], the inhibition at 1 µM worked out at 95%. Turning to `CCNC(=O)Nc1cc(-c2nc(C(F)(F)F)cs2)c(-c2cc(-c3n[nH]c(=O)o3)cnc2N)cn1` [Example 260, 1-(2′-amino-5′-(5-oxo-4,5-dihydro-1,3,4-oxadiazol-2-yl)-4-(4-(trifluoromethyl)thiazol-2-yl)-3,3′-bipyridin-6-yl)-3-ethylurea], the inhibition at 1 µM was 96%. `CCNC(=O)Nc1cc(-c2nc(C(F)(F)F)cs2)c(-c2c[nH]c(=O)c(-c3nnc(C)o3)c2)cn1` [Example 261, 1-ethyl-3-(5-(5-(5-methyl-1,3,4-oxadiazol-2-yl)-6-oxo-1,6-dihydropyridin-3-yl)-4-(4-(trifluoromethyl)thiazol-2-yl)pyridin-2-yl)urea]: the inhibition at 1 µM stood at 96%.

Take `CCNC(=O)Nc1cc(-c2nc(-c3cccc(OC)n3)cs2)c(-c2cncc(-c3n[nH]c(=O)o3)n2)cn1` [Example 262, 1-ethyl-3-(4-(4-(6-methoxypyridin-2-yl)thiazol-2-yl)-5-(6-(5-oxo-4,5-dihydro-1,3,4-oxadiazol-2-yl)pyrazin-2-yl)pyridin-2-yl)urea]: the inhibition at 1 µM was 97%. In the case of `CCNC(=O)Nc1cc(-c2nc(C(F)(F)F)cs2)c(-c2cncc(-c3nnc(C(C)(C)O)o3)c2)cn1` [Example 263, 1-ethyl-3-(5′-(5-(2-hydroxypropan-2-yl)-1,3,4-oxadiazol-2-yl)-4-(4-(trifluoromethyl)thiazol-2-yl)-3,3′-bipyridin-6-yl)urea], the inhibition at 1 µM came out at 100%.

Take `CCNC(=O)Nc1cc(-c2nc(C(F)(F)F)cs2)c(-c2cncc(-c3nnc(C(C)(C)OC(C)=O)o3)c2)cn1` [Example 264, 2-(5-(6′-(3-ethylureido)-4′-(4-(trifluoromethyl)thiazol-2-yl)-3,3′-bipyridin-5-yl)-1,3,4-oxadiazol-2-yl)propan-2-yl acetate]: the inhibition at 1 µM turned out to be 98%.

As for `CCNC(=O)Nc1cc(-c2nc(C(F)(F)F)cs2)c(-c2cncc(-c3nnc(CC(C)=O)o3)c2)cn1` [Example 265, 1-ethyl-3-(5′-(5-(2-oxopropyl)-1,3,4-oxadiazol-2-yl)-4-(4-(trifluoromethyl)thiazol-2-yl)-3,3′-bipyridin-6-yl)urea], the inhibition at 1 µM was 101%. The result for `CCNC(=O)Nc1cc(-c2nc(C(F)(F)F)cs2)c(-c2cncc(-c3nnc(COCc4ccccc4)o3)c2)cn1` [Example 266, 1-(5′-(5-(benzyloxymethyl)-1,3,4-oxadiazol-2-yl)-4-(4-(trifluoromethyl)thiazol-2-yl)-3,3′-bipyridin-6-yl)-3-ethylurea] reads 98%; that for `CCNC(=O)Nc1cc(-c2nc(C(F)(F)F)cs2)c(-c2cncc(-c3nnc(N(CC)CC)o3)c2)cn1` [Example 267, 1-(5′-(5-(diethylamino)-1,3,4-oxadiazol-2-yl)-4-(4-(trifluoromethyl)thiazol-2-yl)-3,3′-bipyridin-6-yl)-3-ethylurea], 98%; that for `CCNC(=O)Nc1cc(-c2nc(C(F)(F)F)cs2)c(-c2cncc(-c3nnc(CN(C)C)o3)c2)cn1` [Example 268, 1-(5′-(5-((dimethylamino)methyl)-1,3,4-oxadiazol-2-yl)-4-(4-(trifluoromethyl)thiazol-2-yl)-3,3′-bipyridin-6-yl)-3-ethylurea], 98%. The value for `CCNC(=O)Nc1cc(-c2nc(C(F)(F)F)cs2)c(-c2cncc(-c3nnc(COC)o3)c2)cn1` [Example 270, 1-ethyl-3-(5′-(5-(methoxymethyl)-1,3,4-oxadiazol-2-yl)-4-(4-(trifluoromethyl)thiazol-2-yl)-3,3′-bipyridin-6-yl)urea] was 97%. In the case of `CCNC(=O)Nc1cc(-c2nc(C(F)(F)F)cs2)c(-c2cncc(-c3nnc(OCC)o3)c2)cn1` [Example 271, 1-(5′-(5-ethoxy-1,3,4-oxadiazol-2-yl)-4-(4-(trifluoromethyl)thiazol-2-yl)-3,3′-bipyridin-6-yl)-3-ethylurea], the inhibition at 1 µM amounted to 100%. The result for `CCNC(=O)Nc1cc(-c2nc(C(F)(F)F)cs2)c(-c2cncc(-c3nnco3)c2)cn1` [Example 272, 1-(5′-(1,3,4-oxadiazol-2-yl)-4-(4-(trifluoromethyl)thiazol-2-yl)-3,3′-bipyridin-6-yl)-3-ethylurea] reads 90%; that for `CCNC(=O)Nc1cc(-c2nc(C(F)(F)F)cs2)c(-c2cncc(-c3nnc(C4(O)CC4)o3)c2)cn1` [Example 273, 1-ethyl-3-(5′-(5-(1-hydroxycyclopropyl)-1,3,4-oxadiazol-2-yl)-4-(4-(trifluoromethyl)thiazol-2-yl)-3,3′-bipyridin-6-yl)urea], 98%. The result for `CCNC(=O)Nc1cc(-c2nc(C(F)(F)F)cs2)c(-c2cncc(-c3nnc(C(=O)N(C)C)o3)c2)cn1` [Example 274, 5-(6′-(3-ethylureido)-4′-(4-(trifluoromethyl)thiazol-2-yl)-3,3′-bipyridin-5-yl)-N,N-dimethyl-1,3,4-oxadiazole-2-carboxamide] reads 99%.

With `CCNC(=O)Nc1cc(-c2nc(C(F)(F)F)cs2)c(-c2cncc(-c3nnc(C(C)O)o3)c2)cn1` (centres unmarked) [Example 275, 1-ethyl-3-(5′-(5-(1-hydroxyethyl)-1,3,4-oxadiazol-2-yl)-4-(4-(trifluoromethyl)thiazol-2-yl)-3,3′-bipyridin-6-yl)urea], the inhibition at 1 µM was found to be 98%. `CCNC(=O)Nc1cc(-c2nc(C(F)(F)F)cs2)c(-c2cncc(-c3nnc(COC(C)=O)o3)c2)cn1` [Example 276, (5-(6′-(3-ethylureido)-4′-(4-(trifluoromethyl)thiazol-2-yl)-3,3′-bipyridin-5-yl)-1,3,4-oxadiazol-2-yl)methyl acetate]: the inhibition at 1 µM worked out at 98%. With `CCNC(=O)Nc1cc(-c2nc(C(F)(F)F)cs2)c(-c2cncc(-c3nnc(COCCOC)o3)c2)cn1` [Example 278, 1-ethyl-3-(5′-(5-((2-methoxyethoxy)methyl)-1,3,4-oxadiazol-2-yl)-4-(4-(trifluoromethyl)thiazol-2-yl)-3,3′-bipyridin-6-yl)urea], the inhibition at 1 µM came out at 68%. The result for `CCNC(=O)Nc1cc(-c2nc(C(F)(F)F)cs2)c(-c2cncc(-c3nnc([C@H](N)C(C)C)o3)c2)cn1` [Example 280, (R)-1-(5′-(5-(1-amino-2-methylpropyl)-1,3,4-oxadiazol-2-yl)-4-(4-(trifluoromethyl)thiazol-2-yl)-3,3′-bipyridin-6-yl)-3-ethylurea] reads 95%.

As to `CCNC(=O)Nc1cc(-c2nc(C(F)(F)F)cs2)c(-c2cncc(-c3nnc(CN)o3)c2)cn1` [Example 281, 1-(5′-(5-(aminomethyl)-1,3,4-oxadiazol-2-yl)-4-(4-(trifluoromethyl)thiazol-2-yl)-3,3′-bipyridin-6-yl)-3-ethylurea], the inhibition at 1 µM came out at 94%.

For the compound `CCNC(=O)Nc1cc(-c2nc(C(F)(F)F)cs2)c(-c2cncc(C3=NNC(=O)CO3)c2)cn1` [Example 282, 1-ethyl-3-(5′-(5-oxo-5,6-dihydro-4H-1,3,4-oxadiazin-2-yl)-4-(4-(trifluoromethyl)thiazol-2-yl)-3,3′-bipyridin-6-yl)urea], the inhibition at 1 µM was determined as 96%. The result for `CCNC(=O)Nc1cc(-c2nc(C(F)(F)F)cs2)c(-c2cncc(-c3nnc(C)n3N)c2)cn1` [Example 283, 1-(5′-(4-amino-5-methyl-4H-1,2,4-triazol-3-yl)-4-(4-(trifluoromethyl)thiazol-2-yl)-3,3′-bipyridin-6-yl)-3-ethylurea] reads 94%; that for `CCNC(=O)Nc1cc(-c2cn(Cc3ccccc3)nn2)c(-c2cc(-c3n[nH]c(=O)o3)ccn2)cn1` [Example 288], 91%.
